The record followed here is patent US12343371B2, “Method for suppressing or alleviating primary or secondary progressive multiple sclerosis (PPMS or SPMS) using a sustained release depot formulation comprising glatiramer acetate” (MAPI PHARMA LTD., priority 2017, dated 2025).

The subject of this assay is primary progressive EAE (PP-EAE) in C57BL/6 female mice. The assay is described as follows: MOG 35-55 induced primary progressive EAE (PP-EAE) in mice: clinical score, body weight, survival. The note with it: for Body weight compared with untreated control (FIG. 2): P<0.05.
Where [1] appears, read: C57BL/6 mice, PP-EAE, GA Depot 4 mg IM Day 0, 1, Copaxone 2 mg SC Days 0-8, N = 20/group, +/- standard error.
Where [2] appears, read: C57BL/6 mice, PP-EAE, GA Depot 4 mg IM Day 0, 1, Copaxone 2 mg SC Days 0-8, N = 20/group, +/- standard error, listed as Copaxone®.

Method: Animals were given food and water ad-libitum throughout the experiment. […] A 21G needle was used for injections in mice. […] Measurements: Body weight was measured every two days from day 0 to day 28. EAE was assessed by clinical scoring of the mice once daily from Day 0 to Day 28 post immunization (Table 2). For analysis, dead animals received clinical score of 5 and the weight recorded at the last measurement before animal death.
The following calculations were derived from clinical score raw data: mean maximum score is the mean of the highest scores noted for each mouse in a specific group up to indicated day of analysis; mean disease duration and mean day of onset were calculated as follows: Mean Disease Duration=Sum of (day of analysis−day of disease onset for each mouse)/(number of mice per group); Mean Day of Onset=(sum of day of disease onset of each mouse)/(number of mice per group). Area under the curve (AUC) of clinical score was calculated using Microsoft Excel and represents disease burden.
Glatiramer Acetate Depot (GA Depot): GA Depot was suspended in water for injection (WFI) and immediately injected intramuscularly (IM) at the indicated dose. Dose of GA Depot are given according to amount of active ingredient (i.e. GA Depot 4 mg contains 4 mg GA).
Statistical analysis: Data was analyzed using Microsoft Excel. Each data set was analyzed using single-factor analysis of variance (ANOVA) followed by one tailed student's T-test.

For the substance glatiramer acetate [Copaxone ®], the “Survival Rate at Day 28” value (C57BL/6 mice, PP-EAE, GA Depot 4 mg IM Day 0, 1, Copaxone 2 mg SC Days 0-8, N = 20/group) came out at 90%. For the same substance, under setting [1], the “AUC Clinical Score” value is listed as 26.83 ± 2.49, the “Mean Day of Onset” value amounted to 12.35 ± 0.23 and the “Mean Disease Duration” value is given as 15.65 ± 0.23. For the same substance, under setting [2], the “AUC Clinical Score” value is “significantly reduced”, the “Mean Day of Onset” value is “significantly reduced” and the “Mean Disease Duration” value was “significantly reduced”. Further, for the setting “C57BL/6 mice, PP-EAE, GA Depot 4 mg IM Day 0, 1, Copaxone 2 mg SC Days 0-8, score 0-5, N = 20/group, +/- standard error”, the “Maximum Mean Disease Score” value was 2.25 ± 0.22. Besides, the “Body weight compared with untreated control (FIG. 2)” value (day 21) was “significantly higher”. For the same substance, the “Body weight compared with untreated control (FIG. 2)” value (days 10 to 17 following immunization) is listed as “significantly higher”. Moreover, the “mean clinical score compared with saline group (FIG. 1)” value (days 11-19 and day 20, p<0.05, GA Depot 4 mg, Copaxone 2 mg days 0-8) is “mean clinical score of the saline group was significantly higher”.
